Test results published in patent US9433663B2, “Mobilization of hematopoietic stem cells” (Children's Hospital Medical Center, priority 2008, dated 2016).

Legend:
RhoA = target: T1, RhoA (Mus musculus, UniProt Q9QUI0); assay: Rho GTPase effector pull-down in murine LDBM cells, RhoA; type: cell-based; conditions: parallel pull-down assay
T1 construct: endogenous in cells; host or cells: murine LDBM cells
Protocol: To analyze the effects of CASIN on the formation of active GTP-bound Cdc42, RhoA, and Rac1, effector pulldown assays were carried out as described previously. Cdc42GAP^−/− MEF, LDBM, CD34^+ hCB cells were treated with CASIN at doses of 5-20 μM in parallel with vehicle control for 2 hrs after overnight starvation, and stimulated with cytokines subsequently. And then cells were lysed in a buffer containing 20 mM Tris-HCL (pH 7.6), 100 mM NaCl, 1% Triton X-100, 10 mM MgCl2, 2 mM NaF, and Protease inhibitor cocktail (Roche Diagnostics). Lysates were incubated with GST-P21-binding domain of PAK1 for RAC1-GTP and Cdc42-GTP, and GST-RBD domain of Rhotekin for RhoA-GTP respectively. Both bound- and unbound-form of Rho GTPases were probed by immunoblotting with antibodies specific for Rac1 (BD biosciences), Cdc42 (BD biosciences), and RhoA (cell signaling).

LDBM cells = assay: CFU-adhesion assay of LDBM cells on fibronectin; type: cell-based, murine
Source text: To shed light on potential roles of CASIN in HSPC mobilization, the effects of CASIN on Cdc42-related cellular functions was studied, including adhesion, migration, and F-actin polymerization of progenitor cells in 32D myeloid progenitors. […] SDF-1α stimulation causes a reorganization of F-actin into a cortical ring around the cells. […] Thirdly, to gain further insight into cellular specificity and efficacy of CASIN, and also to rule out possible toxic effects by CASIN, Cdc42-involved BM progenitor cell functions were examined, including proliferation, adhesion, migration, and F-actin polymerization, in Cdc42^+/+ cells in parallel with Cdc42^−/− cells. In line with additional studies in a Cdc42 conditional knockout mouse model as described herein, Cdc42^−/− LDBM cells have increased CFU-forming progenitors compared to those of Cdc42^+/+.
Murine LDBM cells from Cdc42^+/+ as well as Cdc42^−/− mice were used for CFU-adhesion/migration experiments as described previously. Briefly, for adhesion experiment, in the presence or absence of prior CASIN treatment at doses of 5 and 10 μM, 10^5 cells were plated onto each well of 48-well plates pre-coated with fibronectin fragment CH296, which contains integrin α4β1-binding site. Adherent cells then were harvested by cells dissociation buffer (Gibco, Carlsbad, Calif.), and further plated in CFU assay. […]

Rac1 = target: T2, Rac1 (Homo sapiens, UniProt P63000); assay: Rho GTPase effector pulldown in human CD34+ umbilical cord blood cells, Rac1; type: cell-based; conditions: human CD34^+ HCBs
T2 construct: endogenous in cells; host or cells: human CD34+ umbilical cord blood cells (HCB)
Protocol: (§1) To begin to study potential utility of CASIN in human hematopoietic stem cell mobilization, a series of cellular assays were carried out to determine the effects on human CD34^+ umbilical cord blood cells (HCBs). […] The effects of CASIN on human hematopoietic cell mobilization was therefore tested using a well established preclinical in vivo model (NOD/SCID-Hcb) of human hematopoietic function, where fresh CD34^+ hCB cells were transplanted into sub-lethally irradiated NOD/SCIDs by intrafemoral injection, and repopulated and maintained human hematopoietic reconstitution in the bone marrow of NOD/SCID recipient mice (FIG. 9b, FIG. 11) (Larochelle, A. et al. Nat Med 2, 1329-1337 (1996); Bhatia, M., et al. Proc Natl Acad Sci USA 94, 5320-5325 (1997)). Intravenous injections of CASIN were applied when human cells were well engrafted in the NOD/SCID recipients.
(§2) To analyze the effects of CASIN on the formation of active GTP-bound Cdc42, RhoA, and Rac1, effector pulldown assays were carried out as described previously. Cdc42GAP^−/− MEF, LDBM, CD34^+ hCB cells were treated with CASIN at doses of 5-20 μM in parallel with vehicle control for 2 hrs after overnight starvation, and stimulated with cytokines subsequently. […]

[1] = tested on: human CD34^+ umbilical cord blood cells; assay: migration of human CD34+ HCB cells; type: cell-based; conditions: 5 μM
Protocol: FIG. 4C. relative migration of human CD34^+ cord blood cells in the presence of CASIN at dose of 5 μM in comparison to that of control.
as §1

Cdc42WT/WT MEF cells = assay: Example 7 adhesion, migration, actin polymerization in MEF cells; type: cell-based, mouse; conditions: in vitro
Protocol: To further verify the specificity of CASIN on Cdc42 activity inhibition, adhesion, migration, Actin polymerization is evaluated in both Cdc42−/− and Cdc42WT/WT MEF cells under the following five groups: (1) Cdc42WT/WT cells without treatment; (2) Cdc42−/− cells without treatment; (3) Cdc42WT/WT cells treated with CASIN; (4) Cdc42WT/WT cells treated with control medium; (5) Cdc42−/− cells treated with CASIN, in order to verify that CASIN function through inhibiting Cdc42. similarly, activities of the down stream effectors of Cdc42, Rac, and Rho under the five groups are monitored by western blot as above.

[2] = tested on: C57Bl/6, C3H/HeJ and DBA/2 mice; assay: Example 7 HPC mobilization in comparison and combination with G-CSF; conditions: mouse, in vivo
Protocol: Broad interindividual variability exists in mobilization of HSC/Ps in different strains of mice and man. In some patients, G-CSF is a poor mobilizer. Therefore, the mobilizing capability of CASIN in comparison with G-CSF is evaluated, and in combination with G-CSF, in strains of mice that were reported to differ in responsiveness to G-CSF. Besides C57Bl/6, included in this set of experiments are C3H/HeJ and DBA/2 mice which respond very well to the mobilizing effects of G-CSF compared with C57Bl/6 mice. For each strain of mice, four groups are divided according to regimens used for mobilization: (1) Control medium; (2) CASIN administration; (3)G-CSF: twice a day for 2 days (4) G-CSF plus CASIN administration. Mice are bled 18 h after the last injection, and blood is plated in triplicate for CFU-C assay. Numbers of HPCs in CFU-E, BFU-E, CFU-GM, and CFU-GEMM are calculated per ml of blood later on reflecting the mobilization capacity of different regimens on HPCs.

[3] = tested on: PIP2 induced F-actin assembly; conditions: PIP2 induced F-actin assembly in xenopus egg extracts; read-out: IC50 (dose required to inhibit the maximum polymerization rate by 50%); cited from earlier work
Cdc42 = Cdc42 (Homo sapiens, UniProt P60953); assay: Rho GTPase effector pulldown in human CD34+ umbilical cord blood cells, Cdc42; type: cell-based; design: endogenous in cells; host or cells: human CD34+ umbilical cord blood cells (HCB); conditions: human CD34^+ HCBs
Sequence of Cdc42 (P60953 whole entry): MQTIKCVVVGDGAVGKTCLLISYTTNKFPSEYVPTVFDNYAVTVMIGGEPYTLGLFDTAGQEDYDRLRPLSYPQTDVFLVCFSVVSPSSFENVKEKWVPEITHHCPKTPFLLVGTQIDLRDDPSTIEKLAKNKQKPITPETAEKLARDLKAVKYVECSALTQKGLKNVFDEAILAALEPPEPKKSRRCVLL
Protocol: as §1, §2

T1 sequence (Q9QUI0 whole entry): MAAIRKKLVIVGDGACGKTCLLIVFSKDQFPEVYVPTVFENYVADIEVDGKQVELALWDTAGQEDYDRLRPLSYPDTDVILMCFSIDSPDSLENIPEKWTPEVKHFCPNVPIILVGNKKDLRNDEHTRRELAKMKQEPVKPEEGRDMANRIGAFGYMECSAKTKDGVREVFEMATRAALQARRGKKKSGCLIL

## OCCNC1CCCc2c1[nH]c1ccc(-c3ccccc3)cc21 (stereo not drawn) [CASIN]
RhoA
  RhoA activity: no effects
LDBM cells; Cdc42^+/+ LDBM cells
  adhesion of colony-forming progenitors to fibronectin surface: dose-dependently inhibited
LDBM cells; Cdc42^−/− LDBM cells
  adhesion activity of Cdc42^−/− cells: did not have additive effects
Rac1
  Rac1 activity: without affecting
[1]
  migration activity of human progenitors: significantly dampened
Cdc42WT/WT MEF cells
  MEF cells' ability of adhesion, migration and actin polymerization: impairs
[2]
  mobilization in comparison and in combination with G-CSF: more effective mobilization than G-CSF
[3]
  IC50: 2000 nM
Cdc42
  Cdc42 activity: specifically inhibit
